Experimental data published in ChEMBL document CHEMBL4308841, “Synthesis, in vitro antiproliferative activity, and kinase inhibitory effects of pyrazole-containing diarylureas and diarylamides” (Eur J Med Chem, 2018).

Legend:
[1] = system: M14; assay: Growth inhibition of human M14 cells assessed as cell growth at 100 uM incubated for 48 hrs by sulforhodamine B assay relative to control; type: functional; settings: M14, 48 h, read-out: Activity
[2] = system: IGROV-1; assay: Growth inhibition of human IGROV1 cells incubated for 48 hrs by sulforhodamine B assay; type: functional, cell-based; settings: IGROV-1, 48 h
[3] = system: UACC-257; assay: Growth inhibition of human UACC257 cells assessed as cell growth at 1 uM incubated for 48 hrs by sulforhodamine B assay relative to control; type: functional; settings: UACC-257, 48 h, read-out: Activity
[4] = system: NCI-H322M; assay: Growth inhibition of human NCI-H322M cells assessed as cell growth at 0.01 uM incubated for 48 hrs by sulforhodamine B assay relative to control; type: functional; settings: read-out: Activity
[5] = system: RPMI-8226; assay: Growth inhibition of human RPMI8226 cells assessed as cell growth at 0.01 uM incubated for 48 hrs by sulforhodamine B assay relative to control; type: functional; settings: RPMI-8226, 48 h, read-out: Activity
[6] = system: CAKI-1; assay: Growth inhibition of human Caki1 cells assessed as cell growth at 100 uM incubated for 48 hrs by sulforhodamine B assay relative to control; type: functional; settings: CAKI-1, 48 h, read-out: Activity
[7] = system: LOX IMVI; assay: Growth inhibition of human LOXIMVI cells incubated for 48 hrs by sulforhodamine B assay; type: functional
[8] = system: Malme-3M; assay: Growth inhibition of human MALME-3M cells incubated for 48 hrs by sulforhodamine B assay; type: functional, cell-based
[9] = system: MOLT-4; assay: Growth inhibition of human MOLT4 cells assessed as cell growth at 1 uM incubated for 48 hrs by sulforhodamine B assay relative to control; type: functional; settings: MOLT-4, 48 h, read-out: Activity
[10] = system: SR; assay: Growth inhibition of human SR cells incubated for 48 hrs by sulforhodamine B assay; type: functional, cell-based
[11] = system: A498; assay: Growth inhibition of human A498 cells assessed as cell growth at 1 uM incubated for 48 hrs by sulforhodamine B assay relative to control; type: functional; settings: A498, 48 h, read-out: Activity
[12] = system: T47D; assay: Growth inhibition of human T47D cells assessed as cell growth at 0.01 uM incubated for 48 hrs by sulforhodamine B assay relative to control; type: functional; settings: read-out: Activity
[13] = system: LOX IMVI; assay: Growth inhibition of human LOXIMVI cells assessed as cell growth at 1 uM incubated for 48 hrs by sulforhodamine B assay relative to control; type: functional; settings: read-out: Activity
[14] = system: SNB-75; assay: Growth inhibition of human SNB75 cells incubated for 48 hrs by sulforhodamine B assay; type: functional, cell-based; settings: SNB-75, 48 h
[15] = system: HT-29; assay: Growth inhibition of human HT-29 cells assessed as cell growth at 1 uM incubated for 48 hrs by sulforhodamine B assay relative to control; type: functional; settings: HT-29, 48 h, read-out: Activity
[16] = system: SN12C; assay: Growth inhibition of human SN12C cells assessed as cell growth at 0.1 uM incubated for 48 hrs by sulforhodamine B assay relative to control; type: functional; settings: read-out: Activity
[17] = system: 786-0; assay: Growth inhibition of human 786-0 cells assessed as cell growth at 0.01 uM incubated for 48 hrs by sulforhodamine B assay relative to control; type: functional; settings: 786-0, 48 h, read-out: Activity
[18] = system: CAKI-1; assay: Growth inhibition of human Caki1 cells assessed as cell growth at 1 uM incubated for 48 hrs by sulforhodamine B assay relative to control; type: functional; settings: CAKI-1, 48 h, read-out: Activity
[19] = system: SW-620; assay: Growth inhibition of human SW620 cells assessed as cell growth at 0.01 uM incubated for 48 hrs by sulforhodamine B assay relative to control; type: functional; settings: SW-620, 48 h, read-out: Activity
[20] = system: SK-MEL-28; assay: Growth inhibition of human SK-MEL-28 cells incubated for 48 hrs by sulforhodamine B assay; type: functional, cell-based; settings: SK-MEL-28, 48 h
[21] = system: OVCAR-5; assay: Growth inhibition of human OVCAR5 cells assessed as cell growth at 0.01 uM incubated for 48 hrs by sulforhodamine B assay relative to control; type: functional; settings: OVCAR-5, 48 h, read-out: Activity
[22] = system: SK-MEL-5; assay: Growth inhibition of human SK-MEL-5 cells assessed as cell growth at 1 uM incubated for 48 hrs by sulforhodamine B assay relative to control; type: functional; settings: SK-MEL-5, 48 h, read-out: Activity
[23] = system: OVCAR-8; assay: Growth inhibition of human OVCAR8 cells assessed as cell growth at 100 uM incubated for 48 hrs by sulforhodamine B assay relative to control; type: functional; settings: OVCAR-8, 48 h, read-out: Activity
[24] = system: IGROV-1; assay: Growth inhibition of human IGROV1 cells assessed as cell growth at 0.01 uM incubated for 48 hrs by sulforhodamine B assay relative to control; type: functional; settings: IGROV-1, 48 h, read-out: Activity
[25] = system: MDA-MB-435; assay: Growth inhibition of human MDA-MB-435 cells assessed as cell growth at 0.1 uM incubated for 48 hrs by sulforhodamine B assay relative to control; type: functional; settings: MDA-MB-435, 48 h, read-out: Activity
[26] = system: NCI-H322M; assay: Growth inhibition of human NCI-H322M cells incubated for 48 hrs by sulforhodamine B assay; type: functional, cell-based
[27] = system: NCI-H322M; assay: Growth inhibition of human NCI-H322M cells assessed as cell growth at 100 uM incubated for 48 hrs by sulforhodamine B assay relative to control; type: functional; settings: read-out: Activity
[28] = system: U-251; assay: Growth inhibition of human U251 cells incubated for 48 hrs by sulforhodamine B assay; type: functional, cell-based; settings: U-251, 48 h
[29] = system: Hs-578T; assay: Growth inhibition of human Hs578T cells assessed as cell growth at 0.1 uM incubated for 48 hrs by sulforhodamine B assay relative to control; type: functional; settings: read-out: Activity
[30] = read-out: LC50 (the source's name)
[31] = read-out: pLC50 (the source's name) (converted)

O=C(Nc1cccc(-n2cc(-c3ccncc3)c(-c3cc(O)cc(Cl)c3)n2)c1)Nc1ccc(Cl)c(Cl)c1
growth at 100 µM [1]: -69%
GI50 ([2]; read-out: GI50): 2.56 µM
CC50 [2, 30]: > 100 µM
TGI ([2]; read-out: TGI): 92.3 µM
GI50 ([2]; read-out: pGI50 (converted)): 2.88 µM
CC50 [2, 31]: > 100 µM
TGI ([2]; read-out: pTGI (converted)): 9.33 µM
growth at 1 µM [3]: 92%
growth at 0.01 µM [4]: 52%
growth at 0.01 µM [5]: 104%
growth at 100 µM [6]: -12%
GI50 ([7]; read-out: GI50): 1.56 µM
TGI ([7]; read-out: TGI): 41 µM
GI50 ([7]; read-out: pGI50 (converted)): 1.86 µM
TGI ([7]; read-out: pTGI (converted)): 4.17 µM
GI50 ([8]; read-out: GI50): 1 µM
CC50 [8, 30]: > 100 µM
TGI ([8]; read-out: TGI): 54 µM
GI50 ([8]; read-out: pGI50 (converted)): 1.78 µM
CC50 [8, 31]: > 100 µM
TGI ([8]; read-out: pTGI (converted)): 5.25 µM
growth at 1 µM [9]: 84%
GI50 ([10]; read-out: GI50): 1.3 µM
CC50 [10, 30]: > 100 µM
TGI ([10]; read-out: TGI): 42.4 µM
GI50 ([10]; read-out: pGI50 (converted)): 1.32 µM
CC50 [10, 31]: > 100 µM
TGI ([10]; read-out: pTGI (converted)): 4.27 µM
growth at 1 µM [11]: 75%
growth at 0.01 µM [12]: 106%
growth at 1 µM [13]: 83%
GI50 ([14]; read-out: GI50): 1.38 µM
CC50 [14, 30]: > 100 µM
TGI ([14]; read-out: TGI): 48.2 µM
GI50 ([14]; read-out: pGI50 (converted)): 1.38 µM
CC50 [14, 31]: > 100 µM
TGI ([14]; read-out: pTGI (converted)): 4.79 µM
growth at 1 µM [15]: 96%
growth at 0.1 µM [16]: 95%
growth at 0.01 µM [17]: 92%
growth at 1 µM [18]: 54%
growth at 0.01 µM [19]: 96%
GI50 ([20]; read-out: GI50): 2.14 µM
CC50 [20, 30]: 4.2 µM
TGI ([20]; read-out: TGI): 55.5 µM
GI50 ([20]; read-out: pGI50 (converted)): 2.14 µM
CC50 [20, 31]: 41.7 µM
TGI ([20]; read-out: pTGI (converted)): 5.5 µM
growth at 0.01 µM [21]: 53%
growth at 1 µM [22]: 86%
growth at 100 µM [23]: -38%
growth at 0.01 µM [24]: 98%
growth at 0.1 µM [25]: 93%
GI50 ([26]; read-out: GI50): 1.78 µM
CC50 [26, 30]: > 100 µM
TGI ([26]; read-out: TGI): 76.1 µM
GI50 ([26]; read-out: pGI50 (converted)): 1.78 µM
CC50 [26, 31]: > 100 µM
TGI ([26]; read-out: pTGI (converted)): 7.76 µM
growth at 100 µM [27]: -24%
IC50 [28]: 1.44 µM
GI50 ([28]; read-out: GI50): 1.44 µM
CC50 [28, 30]: 5.51 µM
TGI ([28]; read-out: TGI): 30 µM
GI50 ([28]; read-out: pGI50 (converted)): 1.45 µM
CC50 [28, 31]: 6.61 µM
TGI ([28]; read-out: pTGI (converted)): 3.09 µM
growth at 0.1 µM [29]: 92%
